These results are taken from US20260184727A1, “SOLID FORMS OF MACROCYCLIC COMPOUNDS AND USES THEREOF” (AMGEN INC., priority 2024, published 2026).

The term AUC(0-inf) denotes the area under the concentration-time curve extrapolated to infinity. As usually defined, the AUC(0-t) is the area under the concentration-time curve up to a stated or last time point. A lower AUC(0-t) goes with low exposure. One may read the CL/F as the apparent clearance, not corrected for the fraction that reaches the circulation. By Cmax is commonly meant the peak of the concentration-time curve. As a reminder, the MRT is a mean duration of stay, worked out from the concentration-time curve. Usually Tmax stands for the time from dosing to the highest level. The term solubility denotes the dissolved amount per volume that the medium holds.

SMILES strings stand for the structures. In brackets after ≈: the same amount, converted by molar mass. Where two headings read alike, the source gives them in different places.

Series [1] can be described thus: Moisture sorption analysis (DVS). The series is classed as physicochemical. Particulars: for hygroscopicity by DVS isotherm / moisture uptake (DVS): 25° C. The method, then: Moisture Sorption Analysis-Moisture sorption isotherm was determined using a DVS Endeavour at 25° C. in an aluminum pan with water as the solvent (closed loop) and nitrogen gas flow at 200 sccm. The sample was analyzed from 40% to 0% to 90% to 0% to 90% to 0% to 40% RH in 5% RH steps.

Series [2] in a line: Moisture sorption analysis (DVS). The following applies: for moisture uptake (DVS): 25° C. In kind it is physicochemical.
Series [3] in a line: Single dose dog PK, Form 1E compared to Compound A free base. The series is classed as in vivo, dogs. Particulars: FIG. 5C. How it is done: The pharmacokinetic (PK) properties of Form 1E was evaluated in dogs.
Series [4] can be described thus: Physical and chemical stability of Form 1E. The series is classed as physicochemical.
Series [5] can be described thus: PK properties of Form 1E in male dogs under fasted and fed conditions. The series is classed as in vivo. Particulars: for AUC(0-inf) / AUC(0-t) / CL/F / Cmax / MRT / Tmax / half-life: male, dog, plasma, po; for half-life: read-out: t1/2, z (converted).
A short description of series [6]: Comparative solubilities of Form 1 and Form 1E in biorelevant media. In kind it is physicochemical. Particulars: for solubility: read-out: Solubility Conc.
[7] abbreviates: 30 mg/kg, pH 2, male dogs, Study A, 30.0 mg/kg p.o., Vehicle 1 (water/malonic acid pH 2.0), Fasted.
[8] abbreviates: 30 mg/kg, pH 2, male dogs, Study A, 30.0 mg/kg p.o., Vehicle 1 (water/malonic acid pH 2.0), Fed (kibble).
Where [9] appears, read: 50 mg/kg, pH 7, male dogs, Study B, Vehicle 2 (water/MSA pH7.0), Fasted.
Setting [10] is: 50 mg/kg, pH 7, male dogs, Study B, Vehicle 2 (water/MSA pH7.0), Fed (high fat).

As for `O=C1OCCCc2c(Cl)cc3[nH]ncc3c2-c2ncc3c(nc(OC[C@@]45CCCN4C[C@H](F)C5)nc3c2F)N2CCOC[C@H](C2)O1` [Form 1A], the “hygroscopicity by DVS isotherm” value in series [1] is “hygroscopic”. Moreover, in series [2] (at 95% relative humidity), the “moisture uptake (DVS)” value came out at 5.4 wt. %.
Turning to `O=C1OCCCc2c(Cl)cc3[nH]ncc3c2-c2ncc3c(nc(OC[C@@]45CCCN4C[C@H](F)C5)nc3c2F)N2CCOC[C@H](C2)O1` [Form 1E], in series [3], the “improvement in plasma concentration compared to Compound A free base” value was about 2 ×. In series [4] (accelerated conditions), the physical stability result is reported as “physically stable”. The “chemically stable for” value in series [4] (at 5° C.) is reported as “more than 2 years”. Besides, the “hygroscopicity by DVS isotherm” value in series [1] is “non-hygroscopic”. Further, the “moisture uptake (DVS)” value in series [1] (at 90% relative humidity) was 0.6 wt. %. In addition, the “hygroscopicity compared to all other forms” value in series [1] (compared to all other solid forms of Compound A) was “lowest hygroscopicity”. The “plasma exposure (Cmax and AUC), fed versus fasted conditions” value in series [5] (dogs, FIGS. 5D and 5E, kibble or high fat diet) is listed as “did not show a difference”. In series [5] (dogs, prior studies, 50 mg/kg and a high fat diet), the emesis result is given as “suffered from emesis”. The area under the curve AUC(0-inf) in series [5] (setting [7]) is 14.2 µM·h; in series [5] (setting [8]), 17 µM·h; in series [5] (setting [9]), 3.54 µM·h; in series [5] (setting [10]), 3.91 µM·h. The exposure AUC(0-t) in series [5] (setting [7]) is 14.1 µM·h; in series [5] (setting [8]), 17 µM·h; in series [5] (setting [9]), 3.53 µM·h; in series [5] (setting [10]) it was 3.89 µM·h. Moreover, the CL/F was 73.5 mL/min/kg in series [5] (setting [7]), 55.8 mL/min/kg in series [5] (setting [8]), 783 mL/min/kg in series [5] (setting [9]) and 1160 mL/min/kg in series [5] (setting [10]). For the same compound, the Cmax in series [5] (setting [7]) worked out at 5820 nM; in series [5] (setting [8]) it was 4290 nM; in series [5] (setting [9]), 1350 nM; in series [5] (setting [10]), 1050 nM. Further, the MRT in series [5] (setting [7]) came out at 3.16 h; in series [5] (setting [8]), 4.14 h; in series [5] (setting [9]) it was 3.79 h; in series [5] (setting [10]), 4.26 h. Besides, the Tmax in series [5] (setting [7]) turned out to be 0.312 h; in series [5] (setting [8]), 1.62 h; in series [5] (setting [9]), 0.9 h; in series [5] (setting [10]), 1.5 h. Besides, the half-life is 2.67 h in series [5] (setting [7]); 2.96 h in series [5] (setting [8]); 3.47 h in series [5] (50 mg/kg, pH 7, male dogs, Study B, 50.0 mg/kg, Vehicle 2 (water/MSA pH7.0), Fasted); 4.83 h in series [5] (50 mg/kg, pH 7, male dogs, Study B, 50.0 mg/kg, Vehicle 2 (water/MSA pH7.0), Fed (high fat)). The solubility in series [6] (FaSSGF, pH 1.99, fassgf or other biorelevant) stood at 5990 µg/mL (≈ 9130 µM); in series [6] (FaSSIF, pH 4.86, fassif), 1730 µg/mL (≈ 2640 µM); in series [6] (FeSSIF, pH 4.58, fessif), 2500 µg/mL (≈ 3810 µM); in series [6] (PBS, pH 4.55, aqueous buffer), 1300 µg/mL (≈ 1980 µM); in series [6] (water, H2O, pH 3.93), 7760 µg/mL (≈ 11800 µM). Besides, in series [6] (several media, compared with Form 1), the “solubility in several media relative to Form 1” value is reported as “higher solubility”. Also, the Equilibrium crystal form result in series [6] (solubility sample in FaSSGF), in series [6] (solubility sample in FaSSIF), in series [6] (solubility sample in FeSSIF), in series [6] (solubility sample in H2O) and in series [6] (solubility sample in PBS) was “Form 1E” throughout.
Consider `O=C1OCCCc2c(Cl)cc3[nH]ncc3c2-c2ncc3c(nc(OC[C@@]45CCCN4C[C@H](F)C5)nc3c2F)N2CCOC[C@H](C2)O1` [Form C-P], for which the “hygroscopicity by DVS isotherm” value in series [1] was “hygroscopic”. Moreover, the “moisture uptake (DVS)” value in series [1] (at 80% RH) was 3.08 wt. %.
With `O=C1OCCCc2c(Cl)cc3[nH]ncc3c2-c2ncc3c(nc(OC[C@@]45CCCN4C[C@H](F)C5)nc3c2F)N2CCOC[C@H](C2)O1` [Form C1], the “hygroscopicity by DVS isotherm” value in series [1] is “hygroscopic”. The “moisture uptake (DVS)” value in series [1] (at 85% relative humidity) turned out to be 4.0 wt. %. For the same compound, the “behaviour in DVS at 95% relative humidity” value in series [2] (at 95% relative humidity) is listed as “deliquescence”.
For the compound `O=C1OCCCc2c(Cl)cc3[nH]ncc3c2-c2ncc3c(nc(OC[C@@]45CCCN4C[C@H](F)C5)nc3c2F)N2CCOC[C@H](C2)O1` [Form 1], the solubility was found to be 4420 µg/mL (≈ 6740 µM) in series [6] (FaSSGF, pH 2.06, fassgf or other biorelevant); 35 µg/mL (≈ 53.3 µM) in series [6] (FaSSIF, pH 7.15, fassif); 560 µg/mL (≈ 854 µM) in series [6] (FeSSIF, pH 5.51, fessif); 10 µg/mL (≈ 15.2 µM) in series [6] (PBS, pH 7.04, aqueous buffer); 0.3 µg/mL (≈ 0.457 µM) in series [6] (water, H2O, pH 8.73). The Equilibrium crystal form entry in series [6] (solubility sample in FaSSGF), in series [6] (solubility sample in FaSSIF), in series [6] (solubility sample in FeSSIF), in series [6] (solubility sample in H2O) and in series [6] (solubility sample in PBS) was “Form 1” in each case.
As for `O=C1OCCCc2c(Cl)cc3[nH]ncc3c2-c2ncc3c(nc(OC[C@@]45CCCN4C[C@H](F)C5)nc3c2F)N2CCOC[C@H](C2)O1` [Form A1-A], the “hygroscopicity as per TGA and XRPD analysis” value in series [2] (judged from TGA and XRPD, no DVS reported) is given as “hygroscopic”.
Take `O=C1OCCCc2c(Cl)cc3[nH]ncc3c2-c2ncc3c(nc(OC[C@@]45CCCN4C[C@H](F)C5)nc3c2F)N2CCOC[C@H](C2)O1` [Form 1B]: the “hygroscopicity by DVS isotherm” value in series [1] is “hygroscopic”. Moreover, the “moisture uptake (DVS)” value in series [2] (at 95% relative humidity) is 4.7 wt. %.
